# How the values were obtained:
# [1] = test system: PC3 prostate adenocarcenoma cell line; assay: PC3 cell line toxicity (Cell titer Glo viability); format: cell-based; details: PC3, 72 h
# Procedure: (§1) 90 nL DMSO is added to control wells. […] Luminescence was then recorded using Synergy Neo2Multi-mode Reader.
# (§2) Culture medium were purchased from ATCC, USA.
# [2] = test system: SK-MEL-28 melanoma cell line; assay: SK-MEL-28 cell line toxicity (Cell titer Glo viability); format: cell-based; details: SK-MEL-28, 72 h
# Procedure: as §2
# • General cell culture reagents and plastic. • 384-Well Flat white Poly-styrene TC-Treated Microplates (Corning). • 384 well poly-propylene plates (acoustic grade, Labcyte) for compound dilution. • Cell titer Glo luminescent Cell Viability reagent (Cat #G7571, Promega).
# as §1
# [3] = test system: HL-60 acute promyelocytic leukemia cell line; assay: HL-60 cell line toxicity (Cell titer Glo viability); details: HL-60, 72 h
# Procedure: The half maximal inhibition concentration (IC50) for each compound was determined by harvesting cells during the logarithmic growth period and then counting cell number using hemocytometer. […] Then, using a Biomek FX, test articles were serially diluted (10 mM top, 3× dilution intervals) along with a reference inhibitor (1 mM top, 3× dilution intervals) in acoustic grade Labcyte plate. Then, using an acoustic dispenser (Labcyte550), compounds were added as serially diluted to plate with cells: 90 nL of serially diluted compounds per well. 90 nL DMSO is added to control wells. Test plates were incubated for 72 h in the humidified incubator at 37° C. with 5% CO2. 25 μL of reconstituted Cell titer Glo reagent was added to each well. Each test plate was then incubated for 20 min at room temperature. Luminescence was then recorded using Synergy Neo2Multi-mode Reader.
# In order to calculate intersect IC50, a dose-response curve was fitted using nonlinear regression model with a sigmoidal dose response.
# The formula for calculating surviving rate is shown below, and the intersect IC50 was calculated according to the dose-response curve generated by the software:
# The compounds of interest were assessed cell viability in the HL-60 acute promyelocytic leukemia cell line (ATCC® CCL-240). […] Culture medium were purchased from ATCC, USA.
# [4] = target: T1, cannabinoid receptor 2 (CNR2) (Homo sapiens, UniProt P34972); assay: CB2 receptor agonist assay (cAMP Hunter eXpress, CNR2 CHO-K1 cells); format: cell-based
# T1 construct: host or cells: CHO-K1
# T1 sequence (P34972 whole entry): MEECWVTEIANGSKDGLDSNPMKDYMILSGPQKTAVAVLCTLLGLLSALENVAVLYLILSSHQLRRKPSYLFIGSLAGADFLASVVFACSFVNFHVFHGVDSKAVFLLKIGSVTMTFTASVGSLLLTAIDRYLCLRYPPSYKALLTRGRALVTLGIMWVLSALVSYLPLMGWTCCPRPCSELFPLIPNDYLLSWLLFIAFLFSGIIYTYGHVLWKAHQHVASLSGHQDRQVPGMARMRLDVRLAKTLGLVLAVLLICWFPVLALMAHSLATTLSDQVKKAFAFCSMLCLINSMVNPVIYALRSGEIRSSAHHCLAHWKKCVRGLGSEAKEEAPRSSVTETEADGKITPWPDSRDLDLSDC
# Procedure: (§3) The assays were performed in cAMP Hunter eXpress cells engineered to overexpress naturally Gi/Go-coupled wildtype cannabinoid receptor 1 (CNR1) or cannabinoid receptor 2 (CNR2) in CHO-K1 cell type. In these cells, CB1 and/or […] agonists inhibit production of intracellular cAMP in response to stimulation with Forskolin. cAMP levels are determined using luminogenic detection reagents provided with the Hunter eXpress cAMP detection kit.
# (§4) • Assay ready CNR1 CHO-K1 cells were obtained from Eurofins/Discover X, cat #95-0071E2 • Assay ready CNR2 CHO-K1 cells were obtained from Eurofins/Discover X, cat #95-0183E2 • Hunter eXpress cAMP detection kit was also from Discover X. The kit includes all cAMP detection reagents, Forskolin, complete cell plating medium and cell assay buffer.
# The Assay-Ready CNR1 CHO-K1 or CNR2 CHO-K1 cells were thawed and re-suspended in pre-warmed Assay Complete plating medium and inoculated into 96 well plate at a density of 30,000 cells in 100 μL. The plates with cells were incubated for 24 h at 37° C. in 5% CO2. […] The cells were stimulated with the Forskolin/compound buffer for 30 min. After stimulation, 15 μL of cAMP antibody reagent and 60 μL of cAMP working detection solution were added to the cells and, the cells were incubated for 1 h at room temperature. After 1 h incubation, 60 μL of cAMP Solution A was added to the wells and the plate was incubated for 3 h at room temperature. The plate was read on Biotek Synergy Neo2 reader in luminescent mode. CB1 and CB2 agonists should reduce cAMP production in response to Forskilin. Relative luminescence units (RLUs) were plotted against compound concentration to determine apparent EC50 values of the agonist compounds.
# [5] = target: T2, cannabinoid receptor 1 (CNR1) (Homo sapiens, UniProt P21554); assay: CB1 receptor agonist assay (cAMP Hunter eXpress, CNR1 CHO-K1 cells); format: cell-based; details: agonist mode, Forskolin-stimulated cAMP
# T2 construct: host or cells: CHO-K1
# T2 sequence (P21554 whole entry): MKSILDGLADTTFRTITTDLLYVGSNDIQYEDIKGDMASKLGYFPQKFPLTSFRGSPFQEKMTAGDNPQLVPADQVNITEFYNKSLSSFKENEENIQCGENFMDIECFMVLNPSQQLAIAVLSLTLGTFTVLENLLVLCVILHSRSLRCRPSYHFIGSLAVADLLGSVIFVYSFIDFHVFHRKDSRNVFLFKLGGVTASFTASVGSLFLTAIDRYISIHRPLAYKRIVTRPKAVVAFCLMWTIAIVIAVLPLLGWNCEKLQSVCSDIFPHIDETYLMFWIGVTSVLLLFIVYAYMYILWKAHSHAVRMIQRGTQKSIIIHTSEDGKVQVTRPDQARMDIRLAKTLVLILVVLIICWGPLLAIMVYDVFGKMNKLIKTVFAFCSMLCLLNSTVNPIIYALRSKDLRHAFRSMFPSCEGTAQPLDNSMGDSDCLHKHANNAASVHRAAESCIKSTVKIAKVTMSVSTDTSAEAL
# Procedure: as §3, §4
# The Assay-Ready CNR1 CHO-K1 or CNR2 CHO-K1 cells were thawed and re-suspended in pre-warmed Assay Complete plating medium and inoculated into 96 well plate at a density of 30,000 cells in 100 μL. The plates with cells were incubated for 24 h at 37° C. in 5% CO2. […] The cells were stimulated with the Forskolin/compound buffer for 30 min. […] The plate was read on Biotek Synergy Neo2 reader in luminescent mode. […] Relative luminescence units (RLUs) were plotted against compound concentration to determine apparent EC50 values of the agonist compounds.
compound,measurement,setting,value
"CN[C@@H]1C[C@H]2O[C@@](C)([C@@H]1OC)n1c3ccccc3c3c4c(c5c6ccccc6n2c5c31)C(=O)NC4 [Staurosporine, staurosporine, reference compound]",IC50,"[1]; Homo sapiens, PC-3",~4 nM
same,Cell Viability (%),[1]; 0.0015 uM,67.1%
same,Cell Viability (%),[1]; 0.0046 uM,43.2%
same,Cell Viability (%),[1]; 0.014 uM,34.5%
same,Cell Viability (%),[1]; 0.041 uM,12.7%
same,Cell Viability (%),[1]; 0.12 uM,10.3%
same,Cell Viability (%),[1]; 0.37 uM,9.5%
same,Cell Viability (%),[1]; 1.1 uM,8.4%
same,Cell Viability (%),[1]; 3.3 uM,8.1%
same,Cell Viability (%),[1]; 10 uM,6.8%
same,Cell Viability (%),[1]; 30 uM,7.1%
same,IC50,[2]; Homo sapiens,~210 nM
same,Cell Viability (%),[2]; 0.041 uM,70.0%
same,Cell Viability (%),[2]; 0.12 uM,53.9%
same,Cell Viability (%),[2]; 0.37 uM,41.1%
same,Cell Viability (%),[2]; 1.1 uM,33.0%
same,Cell Viability (%),[2]; 3.3 uM,17.3%
same,Cell Viability (%),[2]; 10 uM,8.55%
same,Cell Viability (%),[2]; 30 uM,8.85%
same,Cell Viability (%),[3]; 0.014 uM,66.6%
same,Cell Viability (%),[3]; 0.041 uM,36.3%
same,Cell Viability (%),[3]; 0.12 uM,27.7%
same,Cell Viability (%),[3]; 0.37 uM,18.7%
same,Cell Viability (%),[3]; 1.1 uM,13.9%
same,Cell Viability (%),[3]; 3.3 uM,11.7%
same,Cell Viability (%),[3]; 10 uM,10.4%
same,Cell Viability (%),[3]; 30 uM,9.6%
CCCCCc1cc(O)c2c(c1)OC(C)(C)C1CCC(CO)=CC21 (stereo not drawn) [11-hydroxy-THC],IC50,"[4]; agonist mode, Forskolin-stimulated cAMP, CNR2 CHO-K1 cells",51 nM
same,Selectivity for CB2 over CB1 (fold),[4]; ratio of agonist IC50 values,0.02 fold
same,IC50,[5],1 nM

# From US20250073184A1, “CANNABIGEROQUINONE COMPOUNDS, COMPOSITIONS INCLUDING SUCH COMPOUNDS, AND USES OF SUCH COMPOUNDS AND COMPOSITIONS” (Juva Life, Inc., priority 2021, published 2025)
